Key:
KRAS G12C = biological target: T1, KRAS G12C (Homo sapiens, UniProt P01116, G12C); assay: SOS1 catalyzed nucleotide exchange assay (TR-FRET); type: biochemical; settings: GDP-loaded HIS-KRAS(G12C), 1 hour pre-incubation with compound
T1 construct: HIS-KRAS (G12C, aa 2-185, Sino biological); purchased Sino biological
Procedure: 1. SOS1 Catalyzed Nucleotide Exchange Assay
HIS-KRAS (G12C, aa 2-185, Sino biological) was diluted to […] EDTA buffer (20 mM HEPES, pH 7.4, 50 mM NaCl, 10 mM EDA, 0.01% (v/v) Tween-20) and incubated for 30 min at 25° C. The EDTA pretreated HIS-KRAS(G12C) was diluted to 12 nM in assay buffer (25 mM HEPES, pH 7.4, 120 mM NaCl, 5 mM MgCl2, 1 mM DTI, 0.01% (v/v) Tween 20, 0.1% (w/v) BSA) containing 120 nM GDP(Sigma) and Mab Anti 6HIS-Tb cryptate Gold(Cisbio) and incubated for 1 hour at 25° C. to prepare GDP-loaded HIS-KRAS(G12C). The GDP-loaded HIS-KRAS(G12C) was pre-incubation with diluted compounds in a 384-well plate (Greiner) for 1 hour, then purified SOS 1ExD (Flag tag, aa 564-1049) and BODIPY™FL GTP (Invitrogen) were added to the assay wells (Final concentration: 3 nM HIS-KRAS(G12C), 2 μM SOS1 ExD, 80 nM BODIPY™FL GTP, 21 ng/mL MAb Anti 6HS-Tb cryptate Gold) and incubated for 4 hours at 25° C. TR-FRET signals were then read on Tecan Spark multimode microplate reader. The parameters were F486: Excitation 340 (35) nm, Emission 486 (10) nm, Lag time 100 μs, Integration time […]; F515: Excitation 340 (35) nm, Emission 515 (10) nm, Lag time […], Integration time 200 s. TR-FRET ratios for each individual wells were calculated by equation: TR-FRET ratio=(Signal F515/Signal F486)*10000. Then the data were analyzed using a 4-parameter logistic model to calculate IC50 values.

[1] = tested on: Phospho-ERK1/2(THR202/TYR204) in NCI-H358 cells express KRAS G12C; assay: Phospho-ERK1/2(THR202/TYR204) HTRF assay; type: cell-based; settings: Homo sapiens; NCI-H358, 2 hours incubation; read-out: p-ERK inhibition in NCI-H358 IC50
Procedure: NCI-H358 cells express KRAS G12C were cultured in RPMI 1640 medium (Gibco) containing 10% fetal bovine serum (Gibco). Cells in culture medium were plated in 96-well plates at a concentration of 40,000 cells/well and allowed to attach overnight. The next day, culture medium was removed and added compounds diluted in assay medium (RPMI 1640, 0.1% EFBS). After 2 hours incubation in a 37° C./5% CO2 cell incubator, the assay medium was removed, then 50 μL of 1× supplemented lysis buffer (Cisbio) was added and the plates were incubated at 25° C. for 45 min with shaking. 10 μL of cell lysates from the 96-well plates were transferred to a 384-well plate (Greiner) containing 2.5 µL/well HTRF® pre-mixed antibodies (Cisbio 64AERPEH).
Incubate 4 hours at 25° C. and then read HTRF signals on Tecan Spark multimode microplate reader. The data were analyzed using a 4-parameter logistic model to calculate IC50 values.

[2] = tested on: NCI-H358 cells express KRAS G12C; assay: Cell growth inhibition assay (CCK-8); type: cell-based; settings: Homo sapiens, 144 h; NCI-H358, 6 days incubation
Procedure: 3. Cell Growth inhibition assay
NCI-H358 cells express KRAS G12C were cultured in RPMI 1640 medium (Gibco) containing 10% fetal bovine serum (Gibco). Cells in culture medium were plated in 96-well plates at a concentration of 3000 cells/well ([…]) and allowed to attach overnight. The next day, compounds were diluted in culture medium and added to the plates. After 6 days incubation in a 37° C./5% CO2 cell incubator, the medium was removed, then 100 μL of 1×CCK-8 (MCE) in culture medium was added in each well. The plates were incubated 1.5-2 hours in a 37° C./5% CO2 cell incubator. OD450 signals were read on Tecan Spark multimode microplate reader and analyzed using a 4-parameter logistic model to calculate IC50 values.

T1 sequence (P01116 2-185 isoform P01116-2 G12C): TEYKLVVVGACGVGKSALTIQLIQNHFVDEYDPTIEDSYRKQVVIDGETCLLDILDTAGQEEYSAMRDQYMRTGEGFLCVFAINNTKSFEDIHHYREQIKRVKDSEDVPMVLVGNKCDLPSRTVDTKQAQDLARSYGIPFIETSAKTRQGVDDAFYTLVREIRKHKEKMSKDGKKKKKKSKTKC

## C=CC(=O)N1CCN(c2nc(OCC3CCC(N(C)C)C3)nc3c2CCN(c2cccc4cccc(C)c24)C3)CC1CC#N (stereo not drawn) [Compound 24, 2-(1-acryloyl-4-(2-((3-(dimethylamino)cyclopentyl)methoxy)-7-(8-methylnaphthalen-1-yl)-5,6,7,8-tetrahydropyrido[3,4-d]pyrimidin-4-yl)piperazin-2-yl)acetonitrile]
KRAS G12C
  IC50: 20.1 nM
[1]
  IC50: 237 nM
[2]
  IC50: 93.6 nM

## C=CC(=O)N1CCN(c2nc(OCC3CCCC3N(C)C)nc3c2CCN(c2cccc(Cl)c2Cl)C3)CC1CC#N (stereo not drawn) [Compound 25, 2-(1-acryloyl-4-(7-(2,3-dichlorophenyl)-2-((2-(dimethylamino)cyclopentyl)methoxy)-5,6,7,8-tetrahydropyrido[3,4-d]pyrimidin-4-yl)piperazin-2-yl)acetonitrile]
KRAS G12C
  IC50: 30.2 nM
[1]
  IC50: 267 nM
[2]
  IC50: 164 nM

## C=CC(=O)N1CCN(c2nc(OCC3CCCC3N(C)C)nc3c2CCN(c2cccc(F)c2C(F)(F)F)C3)CC1CC#N (stereo not drawn) [Compound 26, 2-(1-acryloyl-4-(2-((2-(dimethylamino)cyclopentyl)methoxy)-7-(3-fluoro-2-(trifluoromethyl)phenyl)-5,6,7,8-tetrahydropyrido[3,4-d]pyrimidin-4-yl)piperazin-2-yl)acetonitrile]
KRAS G12C
  IC50: 33.7 nM
[1]
  IC50: 231 nM
[2]
  IC50: 154 nM

## C=CC(=O)N1CCN(c2nc(OCC3CCCC3N(C)C)nc3c2CCN(c2ccccc2C(F)(F)F)C3)CC1CC#N (stereo not drawn) [Compound 27, 2-(1-acryloyl-4-(2-((2-(dimethylamino)cyclopentyl)methoxy)-7-(2-(trifluoromethyl)phenyl)-5,6,7,8-tetrahydropyrido[3,4-d]pyrimidin-4-yl)piperazin-2-yl)acetonitrile]
KRAS G12C
  IC50: 84.6 nM
[1]
  IC50: 566 nM
[2]
  IC50: 310 nM

## C=CC(=O)N1CCN(c2nc(OCC3(CN4CCCC4)CC3)nc3c2CCN(c2cccc(F)c2C(F)(F)F)C3)CC1CC#N (stereo not drawn) [Compound 34, 2-(1-acryloyl-4-(7-(3-fluoro-2-(trifluoromethyl)phenyl)-2-((1-(pyrrolidin-1-ylmethyl)cyclopropyl)methoxy)-5,6,7,8-tetrahydropyrido[3,4-d]pyrimidin-4-yl)piperazin-2-yl)acetonitrile]
KRAS G12C
  IC50: 15.9 nM
[1]
  IC50: 54.5 nM
[2]
  IC50: 78.6 nM

## C=CC(=O)N1CCN(c2nc(OCC3(CN4CCCC4)CC3)nc3c2CCN(c2cccc(Cl)c2Cl)C3)CC1CC#N (stereo not drawn) [Compound 35, 2-(1-acryloyl-4-(7-(2,3-dichlorophenyl)-2-((1-(pyrrolidin-1-ylmethyl)cyclopropyl)methoxy)-5,6,7,8-tetrahydropyrido[3,4-d]pyrimidin-4-yl)piperazin-2-yl)acetonitrile]
KRAS G12C
  IC50: 17.9 nM
[1]
  IC50: 85.3 nM
[2]
  IC50: 106 nM

## C=CC(=O)N1CCN(c2nc(OCC3(CN(C)C)CC3)nc3c2CCN(c2cccc4ccccc24)C3)CC1CC#N (stereo not drawn) [Compound 37, 2-(1-acryloyl-4-(2-((1-((dimethylamino)methyl)cyclopropyl)methoxy)-7-(naphthalen-1-yl)-5,6,7,8-tetrahydropyrido[3,4-d]pyrimidin-4-yl)piperazin-2-yl)acetonitrile]
KRAS G12C
  IC50: 6.75 nM
[1]
  IC50: 81.6 nM
[2]
  IC50: 85.5 nM

## C=CC(=O)N1CCN(c2nc(OCC3(CN4CCCC4)CC3)nc3c2CCN(c2cccc(Cl)c2C(F)(F)F)C3)CC1CC#N (stereo not drawn) [Compound 38, 2-(1-acryloyl-4-(7-(3-chloro-2-(trifluoromethyl)phenyl)-2-((1-(pyrrolidin-1-ylmethyl)cyclopropyl)methoxy)-5,6,7,8-tetrahydropyrido[3,4-d]pyrimidin-4-yl)piperazin-2-yl)acetonitrile]
KRAS G12C
  IC50: 5.24 nM
[1]
  IC50: 66 nM
[2]
  IC50: 60.2 nM

## C=CC(=O)N1CCN(c2nc(OCC3(CN4CCC4)CC3)nc3c2CCN(c2cccc(Cl)c2C(F)(F)F)C3)CC1CC#N (stereo not drawn) [Compound 39, 2-(1-acryloyl-4-(2-((1-(azetidin-1-ylmethyl)cyclopropyl)methoxy)-7-(3-chloro-2-(trifluoromethyl)phenyl)-5,6,7,8-tetrahydropyrido[3,4-d]pyrimidin-4-yl)piperazin-2-yl)acetonitrile]
KRAS G12C
  IC50: 7.28 nM
[1]
  IC50: 79.6 nM
[2]
  IC50: 104 nM

## C=CC(=O)N1CCN(c2nc(OCC3(CN4CCC4)CC3)nc3c2CCN(c2cccc4ccccc24)C3)CC1CC#N (stereo not drawn) [Compound 41, 2-(1-acryloyl-4-(2-((1-(azetidin-1-ylmethyl)cyclopropyl)methoxy)-7-(naphthalen-1-yl)-5,6,7,8-tetrahydropyrido[3,4-d]pyrimidin-4-yl)piperazin-2-yl)acetonitrile]
KRAS G12C
  IC50: 13.5 nM
[1]
  IC50: 149 nM
[2]
  IC50: 179 nM

## C=CC(=O)N1CCN(c2nc(OCC3(CN4CCC4)CC3)nc3c2CCN(c2cccc4cccc(Cl)c24)C3)CC1CC#N (stereo not drawn) [Compound 42, 2-(1-acryloyl-4-(2-((1-(azetidin-1-ylmethyl)cyclopropyl)methoxy)-7-(8-chloronaphthalen-1-yl)-5,6,7,8-tetrahydropyrido[3,4-d]pyrimidin-4-yl)piperazin-2-yl)acetonitrile]
KRAS G12C
  IC50: 5.24 nM
[1]
  IC50: 63.6 nM
[2]
  IC50: 118 nM

## C=CC(=O)N1CCN(c2nc(OCC3(CN4CCC4)CC3)nc3c2CCN(c2cccc4cccc(C)c24)C3)CC1CC#N (stereo not drawn) [Compound 43, 2-(1-acryloyl-4-(2-((1-(azetidin-1-ylmethyl)cyclopropyl)methoxy)-7-(8-methylnaphthalen-1-yl)-5,6,7,8-tetrahydropyrido[3,4-d]pyrimidin-4-yl)piperazin-2-yl)acetonitrile]
KRAS G12C
  IC50: 5.04 nM
[1]
  IC50: 71.8 nM
[2]
  IC50: 135 nM

## C=CC(=O)N1CCN(c2nc(OCC3(CN4CCCC4)CCC3)nc3c2CCN(c2cccc4ccccc24)C3)CC1CC#N (stereo not drawn) [Compound 44, 2-(1-acryloyl-4-(7-(naphthalen-1-yl)-2-((1-(pyrrolidin-1-ylmethyl)cyclobutyl)methoxy)-5,6,7,8-tetrahydropyrido[3,4-d]pyrimidin-4-yl)piperazin-2-yl)acetonitrile]
KRAS G12C
  IC50: 33.2 nM
[1]
  IC50: 220 nM
[2]
  IC50: 742 nM

## C=CC(=O)N1CCN(c2nc(OCC3(CN4CCCC4)CCC3)nc3c2CCN(c2cccc4cccc(C)c24)C3)CC1CC#N (stereo not drawn) [Compound 45, 2-(1-acryloyl-4-(7-(8-methylnaphthalen-1-yl)-2-((1-(pyrrolidin-1-ylmethyl)cyclobutyl)methoxy)-5,6,7,8-tetrahydropyrido[3,4-d]pyrimidin-4-yl)piperazin-2-yl)acetonitrile]
KRAS G12C
  IC50: 13.3 nM
[1]
  IC50: 216 nM
[2]
  IC50: 590 nM

## C=CC(=O)N1CCN(c2nc(OCC3(CN(C)C)CC3)nc3c2CCN(c2cccc4cccc(Cl)c24)C3)CC1CC#N (stereo not drawn) [Compound 46, 2-(1-acryloyl-4-(7-(8-chloronaphthalen-1-yl)-2-((1-((dimethylamino)methyl)cyclopropyl)methoxy)-5,6,7,8-tetrahydropyrido[3,4-d]pyrimidin-4-yl)piperazin-2-yl)acetonitrile]
KRAS G12C
  IC50: 2.57 nM
[1]
  IC50: 14.7 nM
[2]
  IC50: 26.9 nM

## C=CC(=O)N1CCN(c2nc(OCC3(CN(C)C)CC3)nc3c2CCN(c2cccc4cccc(C)c24)C3)CC1CC#N (stereo not drawn) [Compound 47, 2-(1-acryloyl-4-(2-((1-((dimethylamino)methyl)cyclopropyl)methoxy)-7-(8-methylnaphthalen-1-yl)-5,6,7,8-tetrahydropyrido[3,4-d]pyrimidin-4-yl)piperazin-2-yl)acetonitrile]
KRAS G12C
  IC50: 1.16 nM
[1]
  IC50: 23.7 nM
[2]
  IC50: 26.4 nM
